{"source": "paper PMC8596132", "about": "(Advanced Science, 2021)", "key": {"TRPV2": {"target": "T1, TRPV2 (Homo sapiens, UniProt Q9Y5S1)", "T1 construct": "expressed in transfected cells; host or cells: HEK293T", "T1 sequence (Q9Y5S1 1-764)": "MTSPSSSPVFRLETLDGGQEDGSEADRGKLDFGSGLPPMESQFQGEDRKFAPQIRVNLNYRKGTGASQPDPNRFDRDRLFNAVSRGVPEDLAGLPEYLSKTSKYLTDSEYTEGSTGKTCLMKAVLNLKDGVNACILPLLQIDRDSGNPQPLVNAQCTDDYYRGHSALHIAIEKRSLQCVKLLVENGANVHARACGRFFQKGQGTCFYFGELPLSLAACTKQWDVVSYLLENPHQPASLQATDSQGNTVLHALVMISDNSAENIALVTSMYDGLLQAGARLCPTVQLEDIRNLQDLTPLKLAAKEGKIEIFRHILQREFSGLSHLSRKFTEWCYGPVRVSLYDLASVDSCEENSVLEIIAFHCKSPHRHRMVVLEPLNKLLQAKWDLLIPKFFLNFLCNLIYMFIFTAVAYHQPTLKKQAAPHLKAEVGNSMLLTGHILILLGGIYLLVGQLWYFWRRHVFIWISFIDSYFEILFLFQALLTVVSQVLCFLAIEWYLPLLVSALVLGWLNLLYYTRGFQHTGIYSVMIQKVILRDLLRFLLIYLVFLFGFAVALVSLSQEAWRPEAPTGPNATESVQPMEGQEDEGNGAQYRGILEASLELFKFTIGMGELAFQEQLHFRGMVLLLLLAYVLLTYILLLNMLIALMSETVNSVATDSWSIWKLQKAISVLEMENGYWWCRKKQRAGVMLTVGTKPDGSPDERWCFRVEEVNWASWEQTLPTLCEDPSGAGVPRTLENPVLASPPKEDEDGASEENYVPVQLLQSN", "assay": "whole-cell recording, TRPV2 ligand activation", "assay_type": "cell-based", "details": "read-out: IC50, inhibition of TRPV2", "experimental": "(§1) Patch‐clamp recordings were performed with a HEKA EPC10 amplifier with PatchMaster software (HEKA) in the whole‐cell, inside‐out, or outside‐out configuration. For whole cell recordings, patch pipettes were prepared from borosilicate glass and fire‐polished to a resistance of ≈3–6 MΩ. Serial resistance was compensated by 60%. Whole‐cell recordings were performed at ±80 mV. For single‐channel recordings, patch pipettes were fire‐polished to a higher resistance of 6–8 MΩ. Current signal was sampled at 10 kHz and filtered at 2.9 kHz. Membrane potential was clamped at +80 mV. All recordings were performed at room temperature (22 °C) with the maximum variation of 1 °C.\nThere were different solutions prepared for different ion channels current recordings. For TRPM8, TRPV1, TRPV2, TRPV3, and TRPA1 channels recording, the standard bath and pipette solution contained: 130 × 10^−3 M NaCl, 0.2 × 10^−3 M EDTA, and 3 × 10^−3 M HEPES, pH = 7.2. For TRPM4 channels recording, solutions with 130 × 10^−3 M NaCl and 3 × 10^−3 M HEPES, pH = 7.2 were used as standard bath solution. […] TRPM2 currents were recorded with the help of standard bath solution of 147 × 10^−3 M NaCl, 2 × 10^−3 M KCl, 1 × 10^−3 M MgCl2, 10 × 10^−3 M HEPES, 2 × 10^−3 M CaCl2, 13 × 10^−3 M glucose, pH = 7.4 and the pipette solutions of 147 × 10^−3 M NaCl, 1 × 10^−3 M MgCl2, 10 × 10^−3 M HEPES, pH = 7.4. […]"}, "TRPM8 channel": {"target": "T2, TRPM8 channel (Mus musculus, UniProt Q8R4D5)", "T2 construct": "expressed in transfected cells; host or cells: HEK293 / HEK293T cells", "T2 sequence (Q8R4D5 whole entry)": "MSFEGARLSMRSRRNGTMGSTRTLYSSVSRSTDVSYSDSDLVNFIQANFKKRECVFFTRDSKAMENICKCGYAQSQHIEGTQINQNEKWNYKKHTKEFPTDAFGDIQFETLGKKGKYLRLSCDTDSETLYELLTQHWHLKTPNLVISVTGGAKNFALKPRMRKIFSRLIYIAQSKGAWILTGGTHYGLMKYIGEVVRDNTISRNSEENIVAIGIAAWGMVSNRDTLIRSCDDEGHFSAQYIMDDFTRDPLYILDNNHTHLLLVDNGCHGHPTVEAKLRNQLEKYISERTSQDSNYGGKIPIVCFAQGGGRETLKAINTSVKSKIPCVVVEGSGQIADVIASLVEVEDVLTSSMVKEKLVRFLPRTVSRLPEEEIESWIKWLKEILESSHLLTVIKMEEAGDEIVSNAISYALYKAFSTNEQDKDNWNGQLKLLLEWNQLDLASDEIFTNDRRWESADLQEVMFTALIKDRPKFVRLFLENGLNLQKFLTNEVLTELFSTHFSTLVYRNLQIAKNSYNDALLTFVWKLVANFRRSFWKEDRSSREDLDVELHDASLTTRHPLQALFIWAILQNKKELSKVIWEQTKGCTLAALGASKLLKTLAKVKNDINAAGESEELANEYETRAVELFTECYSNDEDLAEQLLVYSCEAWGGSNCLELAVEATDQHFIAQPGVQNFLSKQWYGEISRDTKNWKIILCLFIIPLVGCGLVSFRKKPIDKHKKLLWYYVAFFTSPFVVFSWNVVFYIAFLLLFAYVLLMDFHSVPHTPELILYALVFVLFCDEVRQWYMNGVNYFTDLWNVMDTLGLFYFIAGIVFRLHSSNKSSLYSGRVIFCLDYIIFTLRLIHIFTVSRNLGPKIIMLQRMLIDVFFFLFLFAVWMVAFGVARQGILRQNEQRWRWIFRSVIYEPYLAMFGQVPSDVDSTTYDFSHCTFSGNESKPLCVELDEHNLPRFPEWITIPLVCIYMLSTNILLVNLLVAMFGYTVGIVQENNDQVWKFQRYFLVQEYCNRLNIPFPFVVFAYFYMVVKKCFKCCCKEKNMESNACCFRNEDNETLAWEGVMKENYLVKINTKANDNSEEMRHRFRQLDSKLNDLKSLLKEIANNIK", "assay": "single-channel patch-clamp recording, menthol activation (outside-out)", "assay_type": "cell-based", "details": "+80 mV", "experimental": "(§2) Electrophysiological experiments were performed between 24 and 48 h after transfections. Specifically, single‐channel recordings were conducted about […] after transfection.\nas §1\nThere were different solutions prepared for different ion channels current recordings. For TRPM8, TRPV1, TRPV2, TRPV3, and TRPA1 channels recording, the standard bath and pipette solution contained: 130 × 10^−3 M NaCl, 0.2 × 10^−3 M EDTA, and 3 × 10^−3 M HEPES, pH = 7.2. For TRPM4 channels recording, solutions with 130 × 10^−3 M NaCl and 3 × 10^−3 M HEPES, pH = 7.2 were used as standard bath solution. The pipette solutions required 500 × 10^−6 M CaCl2 mixing with 130 × 10^−3 M NaCl and 3 × 10^−3 M HEPES, pH = 7.2. TRPM2 currents were recorded with the help of standard bath solution of 147 × 10^−3 M NaCl, 2 × 10^−3 M KCl, 1 × 10^−3 M MgCl2, 10 × 10^−3 M HEPES, 2 × 10^−3 M CaCl2, 13 × 10^−3 M glucose, pH = 7.4 and the pipette solutions of 147 × 10^−3 M NaCl, 1 × 10^−3 M MgCl2, 10 × 10^−3 M HEPES, pH = 7.4. For NaV1.5, NaV1.7 channels, the standard bath solution was 140 × 10^−3 M NaCl, 3 × 10^−3 M KCl, 1 × 10^−3 M MgCl2, 1 × 10^−3 M CaCl2, 10 × 10^−3 M HEPES, pH = 7.2 and standard pipette solution was 140 × 10^−3 M CsF, 1 × 10^−3 M EGTA, 10× 10^−3 M NaCl, 10 × 10^−3 M MgCl2, 3 × 10^−3 M KCl, pH = 7.2. To evoke sodium channel currents, a holding potential of −80 mV was used with a testing pulse to +10 mV. […]"}, "[1]": {"assay": "body temperature measurement", "assay_type": "in vivo", "details": "mice, i.v. 30 µg g^−1, rectal temperature up to 24 h, 5-9 animals", "experimental": "Adult CD1 mice (male, 6–8 weeks) were used for behavioral and primary cultures of DRG neurons studies. Mice were group‐housed under the 12 h light‐dark cycle with access to standard food and water ad libitum. All the animal procedures were approved by the Institutional Animal Care & Use Committee (IACUC) of Zhejiang University.\nA digital thermometer (FT3400) was used for body temperature measurement. Adult CD1 male mice were placed into an environmental room maintained at a constant temperature of 22 ± 1 °C. Body temperature was recorded using a rectal probe for mice (FT3400), which was inserted ≈2 cm from the anus. Body temperature was measured before treatment (baseline, BL) and at 5 min, 15 min, 0.5,1,2, 6, and 24 h following DeC‐1.2 (30 mg kg^−1, i.v.) administration."}, "mouse TRPM8 channel": {"target": "T3, mouse TRPM8 channel (Mus musculus, UniProt Q8R4D5)", "T3 construct": "expressed in transfected cells; host or cells: HEK293 / HEK293T cells", "T3 sequence (Q8R4D5 whole entry)": "as above", "assay": "whole-cell patch-clamp recording, menthol activation of TRPM8", "assay_type": "cell-based", "experimental": "HEK293T cells were cultured in Dulbecco's modified Eagle's medium with 10% fetal bovine serum, penicillin (100 U mL^−1), and streptomycin ([…]) at 37 °C with 5% CO2. Transient transfection was conducted by using Lipofectamine 2000 (Invitrogen) and following the instruction manual.\nas §2\nPatch‐clamp recordings were performed with a HEKA EPC10 amplifier with PatchMaster software (HEKA) in the whole‐cell, inside‐out, or outside‐out configuration. For whole cell recordings, patch pipettes were prepared from borosilicate glass and fire‐polished to a resistance of ≈3–6 MΩ. Serial resistance was compensated by 60%. Whole‐cell recordings were performed at ±80 mV. For single‐channel recordings, patch pipettes were fire‐polished to a higher resistance of 6–8 MΩ. Current signal was sampled at 10 kHz and filtered at 2.9 kHz. […]\nThere were different solutions prepared for different ion channels current recordings. […] TRPM2 currents were recorded with the help of standard bath solution of 147 × 10^−3 M NaCl, 2 × 10^−3 M KCl, 1 × 10^−3 M MgCl2, 10 × 10^−3 M HEPES, 2 × 10^−3 M CaCl2, 13 × 10^−3 M glucose, pH = 7.4 and the pipette solutions of 147 × 10^−3 M NaCl, 1 × 10^−3 M MgCl2, 10 × 10^−3 M HEPES, pH = 7.4. […]"}}, "note": "Like-named read-outs stand apart in the source and are kept apart here. Bridge positions count the residues as written; N and C are the ends. Peptide text beside a SMILES is read from it.", "data": [{"smiles": "C[C@@H]1NC(=O)[C@H](CCCNC(=N)N)NC(=O)[C@H](CC(=O)O)NC(=O)[C@H](CCCNC(=N)N)NC(=O)[C@H](CCCNC(=N)N)NC(=O)[C@@H](N)CSSC[C@@H](C(=O)O)NC(=O)[C@H](CCCNC(=N)N)NC(=O)[C@H](CCC(N)=O)NC(=O)[C@H](CCCNC(=N)N)NC(=O)[C@H](Cc2ccc(O)cc2)NC(=O)[C@H](Cc2c[nH]cn2)NC(=O)[C@H](CCCNC(=N)N)NC1=O", "note": "[DeC‐1.2] (H-CRRDRARHYRQRC-OH; disulfide 1-13)", "values": [{"measurement": "IC50", "setting": "TRPV2", "result": "~10", "unit": "µM"}, {"measurement": "open probability of TRPM8 with DeC-1.2 plus menthol", "setting": "TRPM8 channel; outside-out, menthol 1 × 10^−3 M + DeC-1.2 100 × 10^−6 M, mean ± SEM, n = 5, SEM", "result": "18.83 ± 1.92", "unit": "%"}, {"measurement": "effect on body temperature", "setting": "[1]", "result": "did not significantly alter body temperature"}, {"measurement": "IC50", "setting": "mouse TRPM8 channel; whole-cell patch clamp, TRPM8 expressed in HEK293 cells, −80 mV, 22 °C, n = 3, mean ± SEM, read-out: IC50, inhibition of menthol-induced TRPM8 activation", "result": "0.0045 ± 0.003", "unit": "µM"}]}, {"smiles": "CC1CCC(C(C)C)C(O)C1", "note": "(stereo not shown) [menthol]", "values": [{"measurement": "maximum open probability of TRPM8 activation by menthol", "setting": "TRPM8 channel; saturating menthol 1 × 10^−3 M alone", "result": "about 70%"}, {"measurement": "single-channel conductance of TRPM8 with menthol", "setting": "TRPM8 channel; saturating menthol 1 × 10^−3 M alone, mean ± SEM, n = 3, SEM", "result": "58.83 ± 1.85", "unit": "pS"}]}, {"smiles": "C[C@@H]1NC(=O)[C@H](C)NC(=O)[C@H](CCCNC(=N)N)NC(=O)[C@H](CO)NC(=O)[C@H](CC(N)=O)NC(=O)[C@H](CCCNC(=N)N)NC(=O)[C@@H](N)CSSC[C@@H](C(=O)O)NC(=O)[C@H](CCCCN)NC(=O)[C@H](CCC(N)=O)NC(=O)[C@H](CO)NC(=O)[C@H](CC(=O)O)NC(=O)[C@H](Cc2c[nH]cn2)NC1=O", "note": "[DeC‐1.1] (H-CRNSRAAHDSQKC-OH; disulfide 1-13)", "values": [{"measurement": "IC50", "setting": "mouse TRPM8 channel; SEM", "result": "133 ± 73.5", "unit": "µM"}]}]}
